Data published in patent US7442696B2, “Mineralocorticoid receptor modulator compounds, processes for their preparation, and their uses” (Ligand Pharmaceuticals, Inc., priority 2004, dated 2008).

These molecules were tested against T1, human mineralocorticoid receptor protein (MR) (Homo sapiens, UniProt P08235) (assay: Mineralocorticoid receptor binding assay ([3H]aldosterone competition, MR lysate)). Details: baculovirus-expressed MR lysate from Sf21 cells; 2-4 nM [3H]aldosterone; 16 hours at 4° C.; Cheng-Prusoff from IC50.
T1 construct: made in house; host or cells: Spodoptera frugiperda Sf21 insect cells (baculovirus)
T1 sequence (P08235 1-984): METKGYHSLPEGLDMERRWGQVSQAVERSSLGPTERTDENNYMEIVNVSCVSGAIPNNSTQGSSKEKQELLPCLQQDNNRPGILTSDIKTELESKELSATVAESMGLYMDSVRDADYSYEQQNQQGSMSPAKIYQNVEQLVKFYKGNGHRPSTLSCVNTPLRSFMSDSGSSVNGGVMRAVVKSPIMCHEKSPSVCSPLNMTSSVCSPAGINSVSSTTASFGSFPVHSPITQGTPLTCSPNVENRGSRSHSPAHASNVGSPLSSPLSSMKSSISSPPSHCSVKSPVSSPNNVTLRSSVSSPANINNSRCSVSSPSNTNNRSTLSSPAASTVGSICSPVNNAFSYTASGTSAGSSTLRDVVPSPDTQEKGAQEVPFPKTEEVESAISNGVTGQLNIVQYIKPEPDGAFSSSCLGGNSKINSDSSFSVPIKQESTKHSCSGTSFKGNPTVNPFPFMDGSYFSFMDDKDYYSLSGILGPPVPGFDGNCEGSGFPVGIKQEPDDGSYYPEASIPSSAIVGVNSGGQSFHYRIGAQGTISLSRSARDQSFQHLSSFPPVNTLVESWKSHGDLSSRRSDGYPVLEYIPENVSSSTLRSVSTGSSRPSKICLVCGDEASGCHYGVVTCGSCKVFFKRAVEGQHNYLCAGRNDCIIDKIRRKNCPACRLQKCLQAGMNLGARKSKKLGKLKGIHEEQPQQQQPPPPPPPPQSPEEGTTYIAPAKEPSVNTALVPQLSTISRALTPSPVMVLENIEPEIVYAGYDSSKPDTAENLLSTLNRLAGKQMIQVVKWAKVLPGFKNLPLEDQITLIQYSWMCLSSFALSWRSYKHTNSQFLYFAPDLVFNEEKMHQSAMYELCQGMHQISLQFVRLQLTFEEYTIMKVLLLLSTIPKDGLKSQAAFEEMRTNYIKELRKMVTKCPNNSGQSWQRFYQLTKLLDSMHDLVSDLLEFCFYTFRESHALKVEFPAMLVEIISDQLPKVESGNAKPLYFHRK
Description: A baculovirus expression plasmid comprising cDNA encoding the human mineralocorticoid receptor protein (MR) was prepared using standard techniques. See e.g. E. A. Allegretto et. al. 268 J. Biol. Chem., 26625 (1993); G. Srinivasan and B. Thompson, 4 Mol. Endo., 209 (1990); and D. R. O'Reilly et. al., in “Baculovirus Expression Vectors”, D. R. O'Reilly et. al., eds., W. H. Freeman, New York, N.Y., pp. 139-179 (1992). That expression plasmid was co-transfected together with wild type Autographa californica multiple nuclear polyhedrosis virus DNA into Spodoptera frugiperda-21 (Sf-21) cells to generate recombinant virus comprising MR cDNA. See e.g. O'Reilly, D. R., Miller, L. K., Luckow, V. A., Regulation of expression of a baculovirus ecdysteroid UDP glucosyltransferase gene. “Baculovirus Expression Vectors.” WH Freeman, NY, 139-179 (1992). That recombinant virus comprising MR cDNA was collected.
A suspension culture of uninfected Sf21 cells was grown to a density of 1.2×10^6 cells/ml and then infected with the recombinant virus comprising MR cDNA at a multiplicity of infection of 2. Those infected Sf21 cells were incubated for 48 hours and then collected by centrifugation at 1000×g for 10 minutes at 4° C. The resulting cell pellets were resuspended in lysis buffer (50 mM Potassium Phosphate buffer, pH 7.0, 10 mM Monothioglycerol, 5 mM DTT, 20 mM Sodium Molybdate, 1 mM PMSF, 1 μg/mL aprotinin, and 10 μg/mL leupeptin) and incubated for 15 minutes on ice. Those resuspended cell pellets were homogenized using a Dounce homogenizer and a B pestle. A volume of 2 M KCl was added to the homogenized cell pellets to a final concentration of 0.4 M. The resulting MR lysates were centrifuged at 100,000×g for 60 min at 4° C. and stored for use in binding assays.
Binding assay samples were prepared in separate mini-tubes in a 96-well format at 4° C. Each binding assay sample was prepared in a volume of 250 μl of MR-Assay Buffer (10% glycerol, 10 mM sodium phosphate, 10 mM potassium fluoride, 20 mM sodium molybdate, 0.25 mM CHAPS, 2 mM DTT, (adjusted to pH 7.35)) containing 5-10 μg of MR lysate; 2-4 nM of [^3H]aldosterone; unlabeled aldosterone; and a test compound. Each test compound was assayed at several different concentrations, ranging from 0 to 10^−5 M and each was tested in the presence and in the absence of several different concentrations of unlabeled aldosterone. Each concentration of each test compound was assayed in triplicate. The assay samples were incubated for 16 hours at 4° C.
After incubation, 200 μl of 6.25% hydroxylapatite in assay buffer was added to each assay sample to precipitate the protein. The assay samples were then centrifuged and the supernatants were discarded. The resulting pellets were washed twice with assay buffer lacking DTT. Radioactivity in counts per minute (CPM) of each washed pellet was determined by liquid scintillation counter (MicroBeta™, Wallach).
Specific binding for a particular sample was calculated using the equation: (Sample CPM)−(Average Non-specific CPM) Average Non-specific CPM was defined as the amount of radioactivity from samples comprising an excess (i.e. 1000 nM) of unlabeled aldosterone. IC50 values (the concentration of test compound required to decrease specific binding by 50%) were determined using the log-logit (Hill) method. Ki values were determined using the Cheng-Prusoff equation using a previously determined Kd value for aldosterone: Ki=IC50/(1+[L]/Kd) [L]=concentration of labeled aldosterone Kd=dissociation constant of labeled aldosterone Ki values for certain mineralocorticoid receptor binding compounds are shown in Table 1.

Ki [nM]	Structure (SMILES)
45	CC1OC(=S)Nc2ccc(-c3cccc(C(F)(F)F)c3)c(Cl)c21 (racemic) [Compound 111, (±)-5-Chloro-1,4-dihydro-4-methyl-6-[3-(trifluoromethyl)phenyl]-2H-3,1-benzoxazin-2-thione]
150	O=C1Nc2ccc(-c3cccc(C(F)(F)F)c3)c(Cl)c2C(c2ccc(F)cc2)O1 (racemic) [Compound 118, (±)-5-Chloro-4-(4-fluorophenyl)-1,4-dihydro-6-[3-(trifluoromethyl)phenyl]-2H-3,1-benzoxazin-2-one]
98	CC1(C)OC(=O)Nc2ccc(-c3cccc(C#N)c3)c(Cl)c21 [Compound 101, 5-Chloro-6-(3-cyanophenyl)-1,4-dihydro-4,4-dimethyl-2H-3,1-benzoxazin-2-one]
440	CC1(C)OC(=O)Nc2ccc(-c3cccc(C(F)(F)F)c3)c(Cl)c21 [Compound 102, 5-Chloro-1,4-dihydro-4,4-dimethyl-6-[3-(trifluoromethyl)phenyl]-2H-3,1-benzoxazin-2-one]
375	CC(=O)c1cccc(-c2ccc3c(c2Cl)C(C)(C)OC(=O)N3)c1 [Compound 103, 6-(3-Acetylphenyl)-5-chloro-1,4-dihydro-4,4-dimethyl-2H-3,1-benzoxazin-2-one]
52	CC1(C)OC(=S)Nc2ccc(-c3cccc(C(F)(F)F)c3)c(Cl)c21 [Compound 104, 5-Chloro-1,4-dihydro-4,4-dimethyl-6-[3-(trifluoromethyl)phenyl]-2H-3,1-benzoxazin-2-thione]
